In article PMC10447463, “Data-mining unveils structure–property–activity correlation of viral infectivity enhancing self-assembling peptides” (Nature Communications, 2023):

Assay: Aggregate analysis by widefield fluorescence microscopy
Type: physicochemical
Method: 4 µL of 1 mg/mL peptide fibrils solution is added to a 20 µL, 50 µM ThT–solution in PBS. The mixture is incubated for 15 min at RT to allow binding of ThT dye with β–sheet rich structures. For reference PBS (4 µL) was added instead of peptide fibril solution. The samples were placed in black UV Star® 384 microliter well–plates (Greiner bio–one). Fluorescence spectra were recorded on an Infinite® M1000 PRO microplate reader (Tecan) at λem = 488 nm upon excitation at λex = 440 nm with 10 nm bandwidths and multiple reads per well (3×3). Measurements were repeated in triplicates and averaged with standard deviation. A peptide fibril was considered as ThT-active if the fluorescence intensity was at least twice as strong compared to the control (PBS containing 10% DMSO). Zeta-Potential. For the determination of the surface charge of aggregated peptides zeta-potential measurements were conducted with a Zetasizer Nano ZS, Malvern Instruments. Unless stated otherwise the peptides were dissolved from DMSO (10 mg/mL) in PBS (pH 7.4) to concentration of 1 mg/mL and incubated for 1d at RT. Just before the measurement the 60 µL of the peptides were further diluted in 600 µL KCl (aq, 1 mM) in a 1 mL disposable folded capillary cells (DTS–1060, Zetasizer Nano series, Malvern). The zeta potential of the peptides was derived from the electrophoretic mobility based on the Smoluchowski formula. All measurements were averaged over two individually performed experiments and conducted in triplicates for each sample. Aggregate analysis. […] Furthermore, fluorescence microscopy was conducted by staining 1 µL preformed fibrils (1 mg/mL) with 9 µL ThT (50 µM). Brightfield microscopy was performed simultaneously to evaluate aggregation also for non ThT-active fibrils. The measurements were performed on a Leica DMi8 microscope with 10x air objective and equipped with a Leica MC170 HD camera with a filter setting λem = 527/30 nm upon excitation at λex = 480/40 nm) and processed with the Leica LASX software. To quantify size and number of microscopic aggregation of particles > 10 µm^2 at least 3 independently measured images were analyzed via the 3D object counter analysis tool of ImageJ, v 1.53f51. Sum–frequency generation. The SFG experiments were carried out with a femtosecond Ti: Sapphire amplified laser system (Spitfire Ace, Spectra–Physics, 800 nm, 40 fs, 1 kHz) with 5 W output power. We used 2 W to pump an optical parametric amplifier (TOPAS, light conversion) with a non–collinear difference frequency generation stage to generate broadband IR pulses. Another 1 W of the laser output passed through an etalon to generate narrowband visible pulses (10 cm^-1). The incident angles of the visible and IR beams were 36° and 41° with respect to the surface normal, respectively. The visible (13 µJ) and IR (5 µJ) pulses were overlapped spatially and temporally at the sample position. Subsequently, the generated SFG pulse was guided into a spectrograph (Acton SP 300i, Princeton Instruments), and detected with an EMCCD (Newton, Andor Technology). To avoid IR absorption of water vapor, we purged N2 for the measurement. All spectra were collected in the ssp (denoting s-, s- and p-polarized SFG, visible and IR, respectively) polarization combination. The spectra were normalized to the non–resonant signal taken from z–cut quartz after subtracting a background spectrum.
Table S8 Summary of aggregate analysis from widefield microscopy measurements (Figure S32). The Number of aggregated peptides, the median size area, average size area
and the cumulative total size area of all particles (> 10 µm2) in an area of 1330 µm × 1330 µm was determined via automated 3D object counting (ImageJ) in triplicate
measurements (Std. Dev.).
Aggregate Std. Dev. Std. Dev. Std. Dev. Std. Dev.
Sequence Abs. Inf. / Std. Dev. / Count Rate / Std. Dev. Number Aggregate Median Area Median Area Average Area Average Area Total Area/ Total Area/ […]

[1] = Fig S8 panels A, C, 3 fields of 1330 µm x 1330 µm
[2] = Fig S8 panels B, D, average aggregate area, 3 fields of 1330 µm x 1330 µm
[3] = Fig S8 panels B, D, median aggregate area, 3 fields of 1330 µm x 1330 µm
[4] = Fig S8 panels B, D, 3 fields of 1330 µm x 1330 µm
[5] = Fig S8 panels B, D, widefield fluorescence microscopy, 3 fields of 1330 µm x 1330 µm

CKAKAQANMWQ [BL8]
Avg Area in 3 *(1330 µm *1330 µm) (Fig S8 panels A, C): 857.7
Log 10 Number of aggregates in 3 * (1330 µm *1330 µm) (Fig S8 panels A, C): 0.8016
Median Area in 3 * (1330 µm *1330 µm) (Fig S8 panels A, C): 479.9
log Avg Area in 3 * ( (1330 µm *1330 µm)) (Fig S8 panels A, C): 2.933
log Median Area in 3 * ( (1330 µm *1330 µm)) (Fig S8 panels A, C): 2.681
log Total Area of all particles in 3 * (1330 µm *1330 µm) (Fig S8 panels A, C): 3.735
Number of aggregates in 3 * (1330 µm *1330 µm) [1]: 6.333
Avg Area in 3 *(1330 µm *1330 µm) [2]: 857.7
Median Area in 3 * (1330 µm *1330 µm) [3]: 479.9
Total Area of all particles in 3 * (1330 µm *1330 µm) [4]: 5432
Number of aggregates in 3 * (1330 µm *1330 µm) [5]: 6.333

KWKWQW [KB3]
Avg Area in 3 *(1330 µm *1330 µm) (Fig S8 panels A, C): 112
Log 10 Number of aggregates in 3 * (1330 µm *1330 µm) (Fig S8 panels A, C): 1.442
Median Area in 3 * (1330 µm *1330 µm) (Fig S8 panels A, C): 41.405
log Avg Area in 3 * ( (1330 µm *1330 µm)) (Fig S8 panels A, C): 2.049
log Median Area in 3 * ( (1330 µm *1330 µm)) (Fig S8 panels A, C): 1.617
log Total Area of all particles in 3 * (1330 µm *1330 µm) (Fig S8 panels A, C): 3.491
Number of aggregates in 3 * (1330 µm *1330 µm) [1]: 27.67
Avg Area in 3 *(1330 µm *1330 µm) [2]: 112
Median Area in 3 * (1330 µm *1330 µm) [3]: 41.405
Total Area of all particles in 3 * (1330 µm *1330 µm) [4]: 3098
Number of aggregates in 3 * (1330 µm *1330 µm) [5]: 27.67

KIKIQIC [TM112 / CN11]
Avg Area in 3 *(1330 µm *1330 µm) (Fig S8 panels A, C): 23.45
Log 10 Number of aggregates in 3 * (1330 µm *1330 µm) (Fig S8 panels A, C): 1.912
Median Area in 3 * (1330 µm *1330 µm) (Fig S8 panels A, C): 12.96
log Avg Area in 3 * ( (1330 µm *1330 µm)) (Fig S8 panels A, C): 1.37
log Median Area in 3 * ( (1330 µm *1330 µm)) (Fig S8 panels A, C): 1.1125
log Total Area of all particles in 3 * (1330 µm *1330 µm) (Fig S8 panels A, C): 3.282
Number of aggregates in 3 * (1330 µm *1330 µm) [1]: 81.67
Avg Area in 3 *(1330 µm *1330 µm) [2]: 23.45
Median Area in 3 * (1330 µm *1330 µm) [3]: 12.96
Total Area of all particles in 3 * (1330 µm *1330 µm) [4]: 1915.068
Number of aggregates in 3 * (1330 µm *1330 µm) [5]: 81.67

QCKFKQFFNMWQ [CK10]
Avg Area in 3 *(1330 µm *1330 µm) [2]: 30.56
Median Area in 3 * (1330 µm *1330 µm) [3]: 15.07
Total Area of all particles in 3 * (1330 µm *1330 µm) [4]: 55430.97933
Number of aggregates in 3 * (1330 µm *1330 µm) [5]: 1814

CKFKFQFW [TM72]
Avg Area in 3 *(1330 µm *1330 µm) (Fig S8 panels A, C): 28.12
Log 10 Number of aggregates in 3 * (1330 µm *1330 µm) (Fig S8 panels A, C): 2.713
Median Area in 3 * (1330 µm *1330 µm) (Fig S8 panels A, C): 16.689
log Avg Area in 3 * ( (1330 µm *1330 µm)) (Fig S8 panels A, C): 1.449
log Median Area in 3 * ( (1330 µm *1330 µm)) (Fig S8 panels A, C): 1.222
log Total Area of all particles in 3 * (1330 µm *1330 µm) (Fig S8 panels A, C): 4.162
Number of aggregates in 3 * (1330 µm *1330 µm) [1]: 517
Avg Area in 3 *(1330 µm *1330 µm) [2]: 28.12
Median Area in 3 * (1330 µm *1330 µm) [3]: 16.689
Total Area of all particles in 3 * (1330 µm *1330 µm) [4]: 14537.202
Number of aggregates in 3 * (1330 µm *1330 µm) [5]: 517

CKFKFQFNM [BL3]
Avg Area in 3 *(1330 µm *1330 µm) (Fig S8 panels A, C): 19.89
Log 10 Number of aggregates in 3 * (1330 µm *1330 µm) (Fig S8 panels A, C): 2.2313
Median Area in 3 * (1330 µm *1330 µm) (Fig S8 panels A, C): 11.55
log Avg Area in 3 * ( (1330 µm *1330 µm)) (Fig S8 panels A, C): 1.299
log Median Area in 3 * ( (1330 µm *1330 µm)) (Fig S8 panels A, C): 1.063
log Total Area of all particles in 3 * (1330 µm *1330 µm) (Fig S8 panels A, C): 3.53
Number of aggregates in 3 * (1330 µm *1330 µm) [1]: 170.3
Avg Area in 3 *(1330 µm *1330 µm) [2]: 19.89
Median Area in 3 * (1330 µm *1330 µm) [3]: 11.55
Total Area of all particles in 3 * (1330 µm *1330 µm) [4]: 3388
Number of aggregates in 3 * (1330 µm *1330 µm) [5]: 170.3

CKFKQFF [CK15]
Avg Area in 3 *(1330 µm *1330 µm) (Fig S8 panels A, C): 2578
Log 10 Number of aggregates in 3 * (1330 µm *1330 µm) (Fig S8 panels A, C): 0.7533
Median Area in 3 * (1330 µm *1330 µm) (Fig S8 panels A, C): 2243
log Avg Area in 3 * ( (1330 µm *1330 µm)) (Fig S8 panels A, C): 3.411
log Median Area in 3 * ( (1330 µm *1330 µm)) (Fig S8 panels A, C): 3.351
log Total Area of all particles in 3 * (1330 µm *1330 µm) (Fig S8 panels A, C): 4.165
Number of aggregates in 3 * (1330 µm *1330 µm) [1]: 5.667
Avg Area in 3 *(1330 µm *1330 µm) [2]: 2578
Median Area in 3 * (1330 µm *1330 µm) [3]: 2243
Total Area of all particles in 3 * (1330 µm *1330 µm) [4]: 14606.95267
Number of aggregates in 3 * (1330 µm *1330 µm) [5]: 5.667
